Data as given in ChEMBL document CHEMBL3758139, “Novel thiol-based histone deacetylase inhibitors bearing 3-phenyl-1H-pyrazole-5-carboxamide scaffold as surface recognition motif: Design, synthesis and SAR study” (Bioorg Med Chem Lett, 2016).
pIC50: −log10 of the molar value.

Tests used:
Histone deacetylase 3 = Histone deacetylase 3 (Homo sapiens, UniProt O15379); assay: Inhibition of HDAC3 (unknown origin)
Histone deacetylase 8 = biological target: T1, Histone deacetylase 8 (Homo sapiens, UniProt Q9BY41); assay: Inhibition of HDAC8 (unknown origin)
T1 sequence (Q9BY41 whole entry): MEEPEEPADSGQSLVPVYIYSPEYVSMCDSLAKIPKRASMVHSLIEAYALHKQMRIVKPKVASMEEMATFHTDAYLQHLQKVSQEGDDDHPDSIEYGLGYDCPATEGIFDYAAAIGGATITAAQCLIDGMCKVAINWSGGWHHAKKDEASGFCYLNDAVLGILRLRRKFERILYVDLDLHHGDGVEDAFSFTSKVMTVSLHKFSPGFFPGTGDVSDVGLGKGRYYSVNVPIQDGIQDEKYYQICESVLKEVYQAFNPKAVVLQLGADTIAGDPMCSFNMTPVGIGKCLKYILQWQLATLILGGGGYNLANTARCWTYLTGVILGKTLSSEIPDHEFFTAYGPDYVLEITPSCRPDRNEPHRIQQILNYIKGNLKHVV

Histone deacetylase 1 = Histone deacetylase 1 (Homo sapiens, UniProt Q13547); assay: Inhibition of HDAC1 (unknown origin)
[1] = biological target: T2, Protein deacetylase HDAC6 (Homo sapiens, UniProt Q9UBN7); assay: Inhibition of HDAC6 (unknown origin)
T2 sequence (Q9UBN7 whole entry): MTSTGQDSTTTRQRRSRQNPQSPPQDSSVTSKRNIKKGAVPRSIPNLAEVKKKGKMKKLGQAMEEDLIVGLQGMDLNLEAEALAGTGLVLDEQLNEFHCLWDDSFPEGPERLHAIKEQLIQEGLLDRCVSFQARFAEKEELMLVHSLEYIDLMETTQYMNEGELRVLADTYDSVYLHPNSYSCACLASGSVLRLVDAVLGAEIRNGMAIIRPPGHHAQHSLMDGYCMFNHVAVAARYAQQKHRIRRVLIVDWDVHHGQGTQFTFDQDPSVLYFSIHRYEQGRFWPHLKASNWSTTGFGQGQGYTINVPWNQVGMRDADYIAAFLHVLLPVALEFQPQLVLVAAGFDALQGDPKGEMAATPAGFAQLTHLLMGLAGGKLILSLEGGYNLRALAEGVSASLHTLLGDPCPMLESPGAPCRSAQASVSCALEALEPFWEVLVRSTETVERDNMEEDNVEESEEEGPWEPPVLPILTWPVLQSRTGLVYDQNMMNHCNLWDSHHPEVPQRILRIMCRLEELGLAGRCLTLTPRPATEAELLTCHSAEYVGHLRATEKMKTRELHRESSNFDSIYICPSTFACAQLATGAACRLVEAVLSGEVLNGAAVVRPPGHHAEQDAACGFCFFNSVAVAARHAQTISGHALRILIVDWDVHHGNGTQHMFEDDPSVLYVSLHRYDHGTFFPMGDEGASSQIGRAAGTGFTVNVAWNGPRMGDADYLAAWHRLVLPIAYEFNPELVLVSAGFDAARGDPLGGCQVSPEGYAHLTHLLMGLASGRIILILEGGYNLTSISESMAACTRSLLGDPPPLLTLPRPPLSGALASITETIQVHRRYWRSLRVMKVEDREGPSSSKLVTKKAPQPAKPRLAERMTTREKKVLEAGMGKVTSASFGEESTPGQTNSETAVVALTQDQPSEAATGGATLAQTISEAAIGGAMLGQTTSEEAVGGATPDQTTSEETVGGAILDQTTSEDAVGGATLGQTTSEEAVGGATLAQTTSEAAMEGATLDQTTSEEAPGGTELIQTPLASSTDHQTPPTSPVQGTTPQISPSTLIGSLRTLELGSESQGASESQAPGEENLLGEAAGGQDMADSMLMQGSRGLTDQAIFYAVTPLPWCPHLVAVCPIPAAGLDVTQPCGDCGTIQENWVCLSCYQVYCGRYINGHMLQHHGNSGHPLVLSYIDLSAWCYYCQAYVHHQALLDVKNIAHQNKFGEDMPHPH

Histone deacetylase 2 = Histone deacetylase 2 (Homo sapiens, UniProt Q92769); assay: Inhibition of HDAC2 (unknown origin)
Histone deacetylase 4 = Histone deacetylase 4 (Homo sapiens, UniProt P56524); assay: Inhibition of HDAC4 (unknown origin)
Chain of Histone deacetylase 4 (P56524 whole entry): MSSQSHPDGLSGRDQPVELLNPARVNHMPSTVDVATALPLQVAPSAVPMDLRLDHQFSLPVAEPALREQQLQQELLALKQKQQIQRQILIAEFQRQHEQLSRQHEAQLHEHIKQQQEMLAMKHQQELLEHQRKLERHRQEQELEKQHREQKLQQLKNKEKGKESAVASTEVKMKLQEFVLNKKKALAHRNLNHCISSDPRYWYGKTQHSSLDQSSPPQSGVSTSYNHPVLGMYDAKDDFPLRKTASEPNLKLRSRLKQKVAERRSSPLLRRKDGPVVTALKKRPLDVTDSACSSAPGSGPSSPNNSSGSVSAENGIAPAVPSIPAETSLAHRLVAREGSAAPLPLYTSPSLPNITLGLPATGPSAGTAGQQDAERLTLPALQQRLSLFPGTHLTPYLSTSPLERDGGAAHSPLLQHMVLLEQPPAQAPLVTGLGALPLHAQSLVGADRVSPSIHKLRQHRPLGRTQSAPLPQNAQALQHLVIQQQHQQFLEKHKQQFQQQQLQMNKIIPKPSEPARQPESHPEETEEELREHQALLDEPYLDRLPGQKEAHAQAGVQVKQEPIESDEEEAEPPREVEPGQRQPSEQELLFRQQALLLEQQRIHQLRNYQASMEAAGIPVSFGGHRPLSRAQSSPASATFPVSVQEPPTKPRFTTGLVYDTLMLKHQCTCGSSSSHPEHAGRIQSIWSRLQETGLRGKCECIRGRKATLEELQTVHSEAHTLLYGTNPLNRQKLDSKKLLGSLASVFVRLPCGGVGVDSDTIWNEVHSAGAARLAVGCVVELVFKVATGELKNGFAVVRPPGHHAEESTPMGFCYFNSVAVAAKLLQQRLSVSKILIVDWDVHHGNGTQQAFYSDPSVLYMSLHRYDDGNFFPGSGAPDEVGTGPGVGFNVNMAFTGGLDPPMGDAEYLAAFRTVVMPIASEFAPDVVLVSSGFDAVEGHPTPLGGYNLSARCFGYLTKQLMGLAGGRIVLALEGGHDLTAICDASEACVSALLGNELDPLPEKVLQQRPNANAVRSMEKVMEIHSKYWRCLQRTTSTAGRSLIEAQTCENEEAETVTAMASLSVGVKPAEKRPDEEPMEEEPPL

Chain of Histone deacetylase 2 (Q92769 whole entry): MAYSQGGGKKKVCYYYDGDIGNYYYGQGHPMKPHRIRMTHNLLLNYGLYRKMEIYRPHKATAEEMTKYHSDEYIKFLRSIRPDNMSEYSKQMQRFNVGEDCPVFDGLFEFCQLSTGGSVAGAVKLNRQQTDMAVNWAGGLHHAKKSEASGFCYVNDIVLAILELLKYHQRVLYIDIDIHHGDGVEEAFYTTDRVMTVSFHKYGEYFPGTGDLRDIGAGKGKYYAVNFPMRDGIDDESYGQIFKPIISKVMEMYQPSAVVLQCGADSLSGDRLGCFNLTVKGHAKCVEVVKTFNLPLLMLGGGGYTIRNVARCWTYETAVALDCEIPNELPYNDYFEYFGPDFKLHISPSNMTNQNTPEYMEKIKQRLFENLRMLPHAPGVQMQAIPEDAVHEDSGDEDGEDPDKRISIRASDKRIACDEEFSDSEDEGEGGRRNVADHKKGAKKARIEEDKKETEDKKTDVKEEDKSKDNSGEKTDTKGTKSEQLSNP
Chain of Histone deacetylase 3 (O15379 whole entry): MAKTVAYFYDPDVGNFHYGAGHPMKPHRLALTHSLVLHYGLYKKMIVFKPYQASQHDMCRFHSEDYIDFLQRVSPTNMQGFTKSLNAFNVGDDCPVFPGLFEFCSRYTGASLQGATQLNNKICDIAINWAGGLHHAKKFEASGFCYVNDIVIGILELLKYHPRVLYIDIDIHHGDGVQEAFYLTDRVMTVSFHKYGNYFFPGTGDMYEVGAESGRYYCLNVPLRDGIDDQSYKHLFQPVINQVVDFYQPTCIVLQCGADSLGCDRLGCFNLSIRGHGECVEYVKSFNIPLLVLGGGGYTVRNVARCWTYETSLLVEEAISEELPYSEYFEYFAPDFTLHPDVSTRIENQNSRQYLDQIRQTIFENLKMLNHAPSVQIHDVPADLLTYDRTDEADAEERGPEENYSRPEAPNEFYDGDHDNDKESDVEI
Chain of Histone deacetylase 1 (Q13547 whole entry): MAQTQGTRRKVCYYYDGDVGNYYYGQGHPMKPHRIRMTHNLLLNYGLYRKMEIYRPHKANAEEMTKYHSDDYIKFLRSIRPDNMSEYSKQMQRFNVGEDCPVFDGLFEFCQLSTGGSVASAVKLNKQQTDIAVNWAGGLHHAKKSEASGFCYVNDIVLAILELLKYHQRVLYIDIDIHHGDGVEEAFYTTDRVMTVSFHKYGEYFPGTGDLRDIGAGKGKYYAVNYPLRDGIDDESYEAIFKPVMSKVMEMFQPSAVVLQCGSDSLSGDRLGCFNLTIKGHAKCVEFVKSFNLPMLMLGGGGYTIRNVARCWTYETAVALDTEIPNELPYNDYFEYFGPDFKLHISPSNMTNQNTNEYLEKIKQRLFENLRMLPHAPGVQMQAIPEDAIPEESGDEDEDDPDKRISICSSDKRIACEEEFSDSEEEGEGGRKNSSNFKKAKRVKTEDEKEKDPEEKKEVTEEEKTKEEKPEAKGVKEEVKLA

pIC50 (Histone deacetylase 3): 7.17 | pIC50 (Histone deacetylase 8): 5.38 | pIC50 (Histone deacetylase 1): 7.68 | pIC50 [1]: 5.00 | pIC50 (Histone deacetylase 2): 6.85 | pIC50 (Histone deacetylase 4): 5.00
SMILES: CC(=O)SCCCCCCNC(=O)c1cc(-c2ccc(F)cc2)nn1C
